Laboratory results published in patent publication US11142524B2, “Substituted-3H-imidazo[4,5-c]pyridine and 1H-pyrrolo[2,3-c]pyridine series of novel Ectonucleotide Pyrophosphatase/Phosphodiesterase-1 (ENPP1) and stimulator for interferon genes (STING) modulators as cancer immunotherapeutics” (Stingray Therapeutics, Inc., priority 2018, dated 2021).
pIC50: −log10 of the molar value. Counter-ions that a name gives are not always drawn. Like-named read-outs stand apart in the source and are kept apart here.

How the values were obtained:
ENPP1 protein [1] = target: T1, ENPP1 protein (Homo sapiens (Human), UniProt P22413); assay: ENPP1 Inhibition Assay (thymidine 5′-monophosphate p-nitrophenol ester substrate); format: biochemical
T1 sequence (P22413 whole entry, looked up, change not shown): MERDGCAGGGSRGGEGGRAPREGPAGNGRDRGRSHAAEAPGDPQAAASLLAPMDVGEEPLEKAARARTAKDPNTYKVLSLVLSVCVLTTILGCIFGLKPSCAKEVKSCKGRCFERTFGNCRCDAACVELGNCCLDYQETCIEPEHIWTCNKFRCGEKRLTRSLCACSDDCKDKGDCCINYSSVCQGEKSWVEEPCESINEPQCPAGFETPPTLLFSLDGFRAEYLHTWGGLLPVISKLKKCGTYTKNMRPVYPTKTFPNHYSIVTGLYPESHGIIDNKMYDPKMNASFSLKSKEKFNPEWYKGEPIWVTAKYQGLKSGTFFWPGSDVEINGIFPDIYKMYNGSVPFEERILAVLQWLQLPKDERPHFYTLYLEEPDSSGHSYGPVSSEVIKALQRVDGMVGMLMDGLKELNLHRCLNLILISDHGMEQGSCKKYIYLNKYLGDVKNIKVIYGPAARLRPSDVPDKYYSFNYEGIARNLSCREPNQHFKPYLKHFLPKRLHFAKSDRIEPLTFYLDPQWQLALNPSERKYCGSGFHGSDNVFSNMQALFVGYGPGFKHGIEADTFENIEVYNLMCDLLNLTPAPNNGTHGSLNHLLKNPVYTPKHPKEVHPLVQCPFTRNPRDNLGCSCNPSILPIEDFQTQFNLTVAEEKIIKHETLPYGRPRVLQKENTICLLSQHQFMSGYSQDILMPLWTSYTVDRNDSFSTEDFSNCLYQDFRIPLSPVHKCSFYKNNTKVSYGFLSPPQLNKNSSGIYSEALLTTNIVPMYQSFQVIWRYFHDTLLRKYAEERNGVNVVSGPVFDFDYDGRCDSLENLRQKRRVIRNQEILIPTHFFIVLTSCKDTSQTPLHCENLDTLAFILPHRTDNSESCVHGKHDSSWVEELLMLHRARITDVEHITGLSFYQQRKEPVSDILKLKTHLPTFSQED
Procedure: Assay Buffer: 1 mM CaCl2, 0.2 mM ZnCl2, 50 mM Tris, pH 9.0. Substrate: 8 mM Thymidine 5′-monophosphate p-nitrophenol ester sodium salt (Sigma Cat #T4510). Enzyme: 5 ng/L Recombinant Human ENPP-1 Protein (R&D Cat #6136-EN-010) in DMSO in 96-well clear assay plates
(§1) An eight point serial dilution of drugs was prepared in 10× in assay buffer with the final assay concentrations starting at 10 μM, 3 μM, 1 μM, 0.3 μM . . . 0 μM. A dilution of DMSO was included as a control. The assay plate was set up as follows with each well in duplicate: 81 μL assay buffer+10 μL ENPP1 inhibitor or DMSO+5 μL Substrate+4 μL Enzyme. Both the enzyme and substrate were added to opposite sides of the well to ensure that there was no interaction until all wells had both components. The plate was then centrifuged gently for 10 seconds, followed by an incubation at 37° C. for 45 minutes. The reaction was quantified by measuring absorbance at 405 nm using the Envision.
IC50 values are determined using GraphPad Prism 5 software. The data were entered as an X-Y plot into the software as percent inhibition for each concentration of the drug. The concentration values of the drug were log transformed and the nonlinear regression was carried out using the “sigmoidal dose-response (variable slope)” option within the GraphPad software to model the data and calculate IC50 values. The IC50 values reported are the concentration of drug at which 50% inhibition was reached.

Saos-2 Cells = assay: ENPP1 Mineralization Assay; format: cell-based
Procedure: Saos-2 Cells (ATCC CAT #HTB-85). Culture Medium. 24-well Tissue Culture Plate. Ascorbic Acid, 5 mg/mL (100×). β-Glycerophosphate, 1M (100×). Phosphate Buffered Saline. Alizarin Red, 40 mM pH 4.2. 70% Ethanol. Dye Extraction Reagent, 10% Methanol+10% Acetic Acid
Saos-2 cells were plated at a density of 1.5×10^6 cells/well and allowed to grow to 100% confluency over the following 1-2 days. Once completely confluent, the media was replaced with fresh media supplemented with 1× ascorbic acid, 1× β-glycerophosphate, and varying concentrations of ENPP1 inhibitor (if applicable). The addition of the mineralization components was considered Day 1. On Day 3, the media was gently aspirated with no wash followed by the addition of fresh media, mineralization components, and ENPP1 inhibitor (if applicable). On day 5, the media was gently aspirated and the cells were washed twice with PBS. The cells were then fixed with ice cold 70% ethanol for 1 hour at 4° C. Cells were washed once with PBS and stained with Alizarin Red for 30 minutes at room temperature with gentle rotation. Stained cells were washed three times with water for 10 minutes at room temperature with gentle rotation. After imaging cells, dye extraction reagent was added to each well and incubated for 30 minutes at room temperature. Alizarin red was quantified by measuring absorbance at a wavelength of 405 nm using the Envision.
FIG. 9 depicts a picture of results of a similar SAOS-2 mineralization assay. SAOS-2 cell were cultured in the presence and absence of ENPP1 inhibitor (compound 78, 107-02 or 108) and exposed to mineralization components for 3 days.

[2] = target: T2, Recombinant Human ENPP-1 Protein (purified in-house) (Homo sapiens (Human), UniProt P22413); assay: ENPP1 Assay (TMP), Example 2; format: biochemical; conditions: for IC50: Table 5, TMP substrate, read-out: ENPP1 (IC50 μM) TMP; for pIC50: FIG. 5A, TMP substrate, read-out: IC50
T2 sequence (P22413 whole entry, looked up): as the sequence (P22413 whole entry, looked up, change not shown) above
Procedure: Enzyme: 1 ng/μL Recombinant Human ENPP-1 Protein (purified in-house)—Assay Conc.: 5 ng/well of DMSO in 96-well clear assay plates.
as §1, with “A ten” for “An eight”, “75” for “81”, “DMSO Dilutions+10” for “DMSO+5”, “Substrate+5” for “Substrate+4”, “Enzyme (5 ng).” for “Enzyme.”, “Envision Plate Reader.” for “Envision.”

[3] = target: T2, Recombinant Human ENPP-1 Protein (purified in-house); assay: ENPP1 Assay (ATP), Example 2; format: biochemical; conditions: for pIC50: FIG. 5B, ATP substrate, read-out: IC50; for IC50: Table 5, ATP substrate, read-out: ENPP1 (IC50 μM) ATP
Procedure: Assay Buffer: 1 mM CaCl2, 0.2 mM ZnCl2, 50 mM Tris, pH 9.0. Substrate: 100 μM Adenosine 5′-triphosphate disodium salt hydrate (Promega: V703A)—Assay Conc.: 10 μM. Enzyme: 1 ng/μL Recombinant Human ENPP-1 Protein (purified in-house)—Assay Conc.: 5 ng/well of DMSO in 96-well white assay plates. Cell Titer Glo (Promega, cat #G7572).
A ten point serial dilution of drugs was prepared in 10× in assay buffer with the final assay concentrations starting at 10 μM, 3 μM, 1 μM, 0.3 μM . . . 0 μM. A dilution of DMSO was included as a control. The assay plate was set up as follows with each well in duplicate: 75 μL assay buffer+10 μL ENPP1 inhibitor or DMSO Dilutions+10 μL Substrate+5 μL Enzyme (5 ng). Both the enzyme and substrate were added to opposite sides of the well to ensure that there was no interaction until all wells had both components. The plate was then centrifuged gently for 10 seconds, followed by incubation at RT for 20 minutes. To detect levels of ATP, Cell Titer Glo was added 1:1 to each well and incubated for 10 minutes. The reaction was quantified by measuring luminescence using the Envision Plate Reader.

ENPP1 protein [4] = target: T1, ENPP1 protein; assay: ENPP1 Thermal Shift Assay (Example 1); format: binding
Procedure: Assay Buffer (1 mM CaCl2, 0.2 mM ZnCl2, 50 mM Tris, pH 9.0) 5000×SYPRO Orange (ThermoFisher cat #S6651) 384-well PCR Plates
Each drug was prepared as a 10× solution in the assay buffer and SYPRO Orange was diluted to 10× concentration in water. Wells were set up in duplicate in a 384-well PCR plate as follows: 14 μL assay buffer, 2 μL ENPP1 Inhibitor or DMSO, 2 μL (0.5 μg) ENPP1 protein. Each well was mixed and incubated on ice for 5 minutes. Post incubation, 2 μL of SYPRO Orange was mixed into each well and followed by a gentle centrifugation. The protein melt reaction was run using ViiA7 software with temperatures beginning at 25° C. and increasing by 0.05° C./s to the maximum temperature of 99° C.
In a 384-well plate, 1.0 μg of ENPP1 protein incubated with 100 μM of the corresponding drug for 5 minutes. Each well exposed to increasing temperatures to determine an unfolding temperature of the protein.

| Structure (SMILES) | IC50 [2] [µM] | IC50 [3] [µM] | other results |
| --- | --- | --- | --- |
| O=C(CSc1nc2cc(Cl)ncc2[nH]1)Nc1ccc2c(c1)OCO2 [Compound 7, N-(benzo[d][1,3]dioxol-5-yl)-2-((6-chloro-1H-imidazo[4,5-c]pyridin-2-yl)thio)acetamide] | – | – | pIC50 (ENPP1 protein [1]; Tables 3 and 4, read-out: ENPP1 inhibition (IC50)): < 4.30 |
| COc1ccc(NC(=O)CSc2nc3cc(C#N)ncc3[nH]2)cc1OC [Compound 68, 2-((6-Cyano-3H-imidazo[4,5-c]pyridin-2-yl)thio)-N-(3,4-dimethoxyphenyl)acetamide] | – | – | inhibiting the activity of ENPP1 (ENPP1 protein [1]; FIG. 1): effective; pIC50 (ENPP1 protein [1]; Table 1, FIG. 1, read-out: IC50): 6.94; inhibiting ENPP1 ability to produce mineralized nodules (Saos-2 Cells; FIG. 4, normalized against DMSO control): effective |
| COc1nc(NC(=O)CSc2nc3c(C)c(C#N)ncc3[nH]2)ccc1O [Compound 96, 2-((6-cyano-7-methyl-3H-imidazo[4,5-c]pyridin-2-yl)thio)-N-(5-hydroxy-6-methoxypyridin-2-yl)acetamide] | > 50 | – | – |
| COc1ccc(NC(=O)CSc2nc3c(C)c(C#N)ncc3[nH]2)cc1S(C)(=O)=O [Compound 103, 2-((6-cyano-7-methyl-3H-imidazo[4,5-c]pyridin-2-yl)thio)-N-(4-methoxy-3-(methylsulfonyl)phenyl)acetamide] | > 50 | – | – |
| Cc1c(C#N)ncc2[nH]c(SCC(=O)Nc3ccc(F)c(S(N)(=O)=O)c3)nc12 [Compound 104, 2-((6-cyano-7-methyl-3H-imidazo[4,5-c]pyridin-2-yl)thio)-N-(4-fluoro-3-sulfamoylphenyl)acetamide] | 2.85 | – | – |
| COc1ccc(NC(=O)CSc2nc3c(C)c(C#N)ncc3[nH]2)cc1OP(=O)(O)O [Compound 107, Sodium 5-(2-((6-cyano-7-methyl-3H-imidazo[4,5-c]pyridin-2-yl)thio)acetamido)-2-methoxyphenyl phosphate] | – | – | pIC50 [2]: 6.63; IC50 ([2]; phosphate): 0.231 µM; pIC50 [3]: 6.94; IC50 ([3]; phosphate): 0.116 µM |
| COc1cc(NC(=O)CSc2nc3c(C)c(C#N)ncc3[nH]2)ccc1OP(=O)([O-])[O-].[Na+].[Na+] [Compound 108, sodium 4-(2-((6-Cyano-7-methyl-3H-imidazo[4,5-c]pyridin-2-yl)thio)acetamido)-2-methoxyphenyl phosphate] | 2.04 | 0.339 | Tm (° C.) (ENPP1 protein [4]; Table 2, FIG. 7, 100 μM drug, 1.0 μg ENPP1, NT 60.05): 63.60 °C; ΔTm at 100 µM (ENPP1 protein [4]; read-out: ΔTm (° C.)): 3.54 °C; total mineralization (Saos-2 Cells; FIG. 9, mineralization components for 3 days): significant decrease; pIC50 [2]: 5.69; pIC50 [3]: 6.47 |
| COc1ccc(NC(=O)CSc2nc3c(C)c(C#N)ncc3[nH]2)cc1OCCO [Compound 109, 2-((6-cyano-7-methyl-3H-imidazo[4,5-c]pyridin-2-yl)thio)-N-(3-(2-hydroxyethoxy)-4-methoxyphenyl)acetamide] | 3.61 | 3.26 | – |
| Cc1c(C#N)ncc2[nH]c(SCC(=O)Nc3ccc(F)c(OCCO)c3)nc12 [Compound 110, 2-((6-cyano-7-methyl-3H-imidazo[4,5-c]pyridin-2-yl)thio)-N-(4-fluoro-3-(2-hydroxyethoxy)phenyl)acetamide] | > 50 | – | – |
| COc1ccc(NC(=O)CSc2nc3c(C)c(C#N)ncc3[nH]2)cc1OCC1CCN(C)CC1 [Compound 111, 2-((6-cyano-7-methyl-3H-imidazo[4,5-c]pyridin-2-yl)thio)-N-(4-methoxy-3-((1-methylpiperidin-4-yl)methoxy)phenyl)acetamide hydrochloride] | 22.3 | – | – |
| COc1ccc(NC(=O)CSc2nc3c(C)c(C#N)ncc3[nH]2)cc1N1CCC(O)CC1 [Compound 112, 2-((6-cyano-7-methyl-3H-imidazo[4,5-c]pyridin-2-yl)thio)-N-(3-(4-hydroxypiperidin-1-yl)-4-methoxyphenyl)acetamide hydrochloride] | > 50 | > 50 | – |
| COc1ccc(NC(=O)CSc2nc3c(C)c(C#N)ncc3[nH]2)cc1O[C@H]1CC[C@H](N)CC1 [Compound 113, N-(3-(((1r,4r)-4-aminocyclohexyl)oxy)-4-methoxyphenyl)-2-((6-cyano-7-methyl-3H-imidazo[4,5-c]pyridin-2-yl)thio)acetamide Hydrochloride] | 22.2 | – | – |
| COc1ccc(NC(=O)CSc2nc3c(C)c(C#N)ncc3[nH]2)cc1N[C@H]1CC[C@H](N)CC1 [Compound 114, N-(3-(((1r,4r)-4-aminocyclohexyl)amino)-4-methoxyphenyl)-2-((6-cyano-7-methyl-3H-imidazo[4,5-c]pyridin-2-yl)thio)acetamide hydrogen chloride] | > 50 | > 50 | – |
| COc1ccc(NC(=O)c2cnc(CSc3nc4c(C)c(C#N)ncc4[nH]3)s2)cc1O [Compound 115, sodium 5-(2-(((6-cyano-7-methyl-3H-imidazo[4,5-c]pyridin-2-yl)thio)methyl)thiazole-5-carboxamido)-2-methoxyphenolate] | 1.61 | 0.196 | pIC50 [2]: 5.79; pIC50 [3]: 6.72 |
